Laboratory results reported in US20240400698A1, “ANTI-CHEMOKIN LIKE RECEPTOR 1 ANTIBODIES AND THEIR THERAPEUTIC APPLICATIONS” (OSE IMMUNOTHERAPEUTICS, priority 2018, published 2024).

What was measured:
Mice dendritic cells = assay: Maturation and differentiation of mice bone marrow derived dendritic cells, activation markers and viability by FACS; format: cell-based
Protocol: FIG. 1. Effect of the anti-CMKLR1 variants 1G1, 2G1, 3G1 and 4G1 chimeric antibodies on the DCs maturation and differentiation. Mice dendritic cells were incubated during maturation phase (24 h or 48 h) followed by a differentiation phase with excipient or RvE1 or anti-CMKLR1 antibodies variants (mutations on positions 1 and 2 of SEQ ID No. 8, corresponding to the VH-CDR3: 1G1 (LL), 2G1 (LI), 3G1 (IL) or 4G1 (II) or isotype controls (hIgG1 or mIgG)). Cells were then stained for FACS analysis with cell marker antibodies: A. CD80-PE; B. CD86-FITC; C. CD103-PerCPCy5.5; D. I/Ab-APC. Mean of Fluorescence was determined in each condition. E and F represent the viability of the cells measured by FACS using LIVE/DEAD® kit from Life Technologies in each condition after 24 or 48 hours of maturation respectively.
FIG. 17. Study of the myeloid cell activation markers after CMKLR1 pathway activation. Dendritic cells incubated in excipient, RvE1, 2G1 or isotype control (hIgG1) were then stained for FACS analysis with marker antibodies: A. CD80-PE. B. CD86-FITC. C. CD103-PerCPCy5.5. D. CD40-PeCy7. E. I/Ab-APC. Mean of Fluorescence was determined in each condition.
Bone marrow cells were harvested and cultured in RPMI medium supplemented with 10% FBS, glutamine and antibiotics and the dendritic cell differentiation was induced by GM-CSF at 20 ng/ml for 7 days. Then, immature dendritic cells (iDC) were collected and cultured for 24 hours with LPS (100 ng/ml) to induce the maturation from iDC to mDC. Treatments were added during differentiation and maturation at 2 μg/ml.
Dendritic cells were resuspended in PBS-FBS-EDTA and incubated with live and dead (LIVE/DEAD® Fixable Dead Cell Stains Yellow-Life Technologies) for 30 minutes on ice. Staining of CD11c-BV711, CD11b-APCCy7, I/Ab-APC, CD103-PerCPCy5.5, CCR7-V450, CD40-PeCy7, CD80-PE, CD86-FITC (all provided by BD Pharmingen) were performed.

[1] = tested on: mice M1 or M2 macrophages; assay: Cytokine secretion by mice M1 or M2 macrophages (ELISA), FIG. 15; format: cell-based; details: FIG. 15; IL10, CCL17, IL12p40
Protocol: FIG. 15. Study of the inflammatory cytokine secretion by human macrophages during CMKLR1 activation. After differentiation of human macrophages M1 or M2, cells were incubated in presence of medium, isotype control, anti-CMKLR1 antibodies (H6 and BZ194), C15 peptides, 2G1 anti-CMKLR1 antibody or RvE1. Secretion of IL10, CCL17 and IL12p40 were assessed by ELISA. Cytokines secretion is measured in the supernatant by using an ELISA kit from BD. Supernatant were diluted at 1/10 for IL10 cytokines, 1/50 for CCL17 cytokines and 1/100 for IL12p40 cytokines. A. IL10 cytokine secretion by M2 cells. B. CCL17 cytokine secretion by M2 cells. C. represents IL 12 cytokine secretion by M1 cells.
Bone marrow cells were harvested and cultured in the RPMI medium supplemented with 10% FBS, glutamine and antibiotics containing macrophages colony-stimulating factor (M-CSF) at 100 ng/ml for 5 days inducing the macrophages differentiation. The macrophages were harvested and cultured for 2 days with either IFNg (20 ng/ml) and LPS (100 ng/ml) inducing the M1 polarization or with IL-4 (20 ng/ml) inducing the M2 polarization. Treatments were added during macrophage polarization at 2 μg/ml.
After differentiation of mice M1 or M2 as explain above, cells were incubated in presence of medium, isotype control, anti-CMKLR1 antibodies: clones H6 and BZ194, C15 peptides, 2G1 the anti-CMKLR1 antibody of interest or RvE1 were used. Then the secretion of IL10, CCL17 and IL12p40 was assessed by ELISA. Cytokines secretion was measured in the supernatant using an ELISA kit from BD. Supernatants were diluted at 1/10 for IL10 cytokines, 1/50 for CCL17 cytokines and 1/100 for IL12p40 cytokines.
Cytokines secretion was detected by ELISA according to the BD manufacturer instructions. Briefly, supernatants were diluted in the appropriate buffer and incubated for 2 hours after overnight coating with capture antibody and saturation. […] TMB supplied by BD Bioscience was used as substrate and colorimetric reaction was read with TECAN.

[2] = tested on: mice, peritonitis induced by Zymosan A; assay: Zymosan A peritonitis model (sepsis); format: in vivo; details: preventive injection, vs isotype control
Protocol: FIG. 7. […] Preventive injection of anti-CMKLR1 was performed before Zymosan A injection (1 mg per mouse in 1 mL): RvE1 (1 μg per mouse) (•), 2G1 antibody (10 μg per mouse) ( ) or isotype control antibody (x). A. PMN numbered during the first 50 hours after Zymosan A injection. B. Macrophages numbered during the first 50 hours after Zymosan A injection. C. Resolution index.
Common peritonitis is induced by intraperitoneal injection of Zymosan A® (1 mg per mouse in 1 mL). Preventive injection of anti-CMKLR1 was performed 5 minutes before Zymosan A injection: RvE1 (1 μg per mouse), 2G1 antibody (10 μg per mouse). Murine peritoneal polymorphonuclear neutrophil (PMN) and macrophages were collected at 2-4-8-16-24 and 48 h after Zymosan A injection and numbered by flow cytometry analysis to determinate the resolution index (Bannenberg et al., 2005).

[3] = tested on: male C57BI/6 mice, Aldara-induced psoriasis; assay: Imiquimod (Aldara)-induced psoriasis-like skin inflammation; format: in vivo; details: 1 μg per mouse i.p. daily, vs control molecule
Protocol: FIG. 6. Effect of Resolvin E1 on an autoimmune disease such as mice psoriasis model. Aldara treated mice for 6 consecutive days were injected intra-peritoneally with: RvE1 (1 μg) (•) and PBS daily, and isotype control antibody (10 μg) (x) at day 0, 2 and 4. A. Ear thicknesses and B. skin thicknesses were measured daily until the recovery.
Aldara@ cream which is known to induce psoriasis in mice was used on male C57BI/6 mice (8-10-week old). Mice received a daily topical dose of Aldara on the shaved back and the left ear for 6 consecutive days. Treatments were injected intra-peritoneally: RvE1 (1 μg per mouse) and PBS daily. Ear (FIG. 6A) and back (FIG. 6B) thicknesses were measured daily until the recovery.

[4] = tested on: C57BI/6 male mice, colitis induced by TNBS; assay: Acute inflammatory colitis model induced by TNBS; format: in vivo; details: FIG. 3, 2G1 10 μg, RvE1 1 μg per mouse i.p.
Protocol: FIG. 3. […] Mice received 200 μL of the haptenating agent TNBS at 5% in 50% ethanol on day 0 and then were injected with isotype control hIgG1 (10 μg per mouse) (x), RvE1 (1 μg per mouse) daily (•), or 2G1 antibody (10 μg per mouse) three times ( ) for 5 days, or non-treated (wild type animals) (▾). Mice were sacrificed colon length was measured in each condition.
Colitis was induced in 8-10 weeks-old-C57BI/6 male mice by intrarectal injection of 200 μL of the haptenating agent TNBS at 5% in 50% ethanol on day 0. Treatments were injected intra-peritoneally; RvE1 (1 μg per mouse) daily for three days, or 2G1 antibody (10 μg per mouse) twice for 3 days. Colitis follow-up consisting of body weight and stool score (0: normal stool; 4: blood in stool) parameters were performed daily (data not represented). When mice are euthanized, colon length representing the pathology severity was measured.

In the case of `CC[C@@H](O)/C=C/C=C\C[C@@H](O)/C=C/C=C/C=C\[C@@H](O)CCCC(=O)O` [RvE1, Resolvin E1, reference compound], the “expression of CD80, CD86, CD103, CD40 and IAb (DC activation markers)” value (Mice dendritic cells; FIG. 17, FACS, compared to the excipient or isotype control) is reported as “strong decrease”, the “inflammatory cytokines secreted by M1 or M2 macrophages, result compared with that of 2G1” value [1] is reported as “different” and the PMNs number ([2]; FIG. 7A) is reported as “slightly less”. The macrophages number ([2]; FIG. 7B) was “slightly less”, the resolution index ([2]; FIG. 7C) was “better resolution index” and the “thickness of the ears” value ([3]; FIG. 6A) was “lower thickness”. For the same molecule, the “thickness of the skin (back)” value ([3]; FIG. 6B) was “lower thickness” and the colon length [4] was “the same as normal animal (wt)”.

B1: 1G1: anti-CMKLR1 chimeric antibody variant, LL on positions 1 and 2 of VH-CDR3 (SEQ ID No. 8) (antibody, V domains shown)
VH: EVQLVASGGGLVQPGGSLKLSCAASGFTFSSYGMSWVRQTPDRRLELVATINRYGGSTYYPDSVKGRFTISRDNAKNTLYLQMSSLKSEDTAMYYCPRLLYYGNEGDSWGQGTTLTVSS
VL: QIVLTQSPAIMSASPGEKVTMTCSASSSVSFMHWYQQKSGTSPKRWIYDTTKLTSGVPARFSGSGSGTFYSLTISSMEAEDAATYYCQQWNSKPPLTFGPGTKLELKR
With B1 the “DCs activation and/or maturation towards a pro-inflammatory pathway” value (Mice dendritic cells; FIG. 1, mice dendritic cells, maturation 24 h or 48 h) was “inhibit DCs activation and/or maturation in a stronger manner than other synthetized antibodies (3G1 and 4G1)” and the viability of cells (Mice dendritic cells; FIGS. 1E and 1F, LIVE/DEAD kit, after 24 or 48 hours of maturation, compared with other antibodies, C7 or Resolvin E1) was “enhanced”.
